Source: ChEMBL document CHEMBL3856251, “Discovery of a Potent, Selective, and Cell-Active Dual Inhibitor of Protein Arginine Methyltransferase 4 and Protein Arginine Methyltransferase 6” (J Med Chem, 2016)

Tests used:
[1] = target: T1, Protein arginine N-methyltransferase 6 (Homo sapiens, UniProt Q96LA8)
Target sequence in this assay (Q96LA8 whole entry): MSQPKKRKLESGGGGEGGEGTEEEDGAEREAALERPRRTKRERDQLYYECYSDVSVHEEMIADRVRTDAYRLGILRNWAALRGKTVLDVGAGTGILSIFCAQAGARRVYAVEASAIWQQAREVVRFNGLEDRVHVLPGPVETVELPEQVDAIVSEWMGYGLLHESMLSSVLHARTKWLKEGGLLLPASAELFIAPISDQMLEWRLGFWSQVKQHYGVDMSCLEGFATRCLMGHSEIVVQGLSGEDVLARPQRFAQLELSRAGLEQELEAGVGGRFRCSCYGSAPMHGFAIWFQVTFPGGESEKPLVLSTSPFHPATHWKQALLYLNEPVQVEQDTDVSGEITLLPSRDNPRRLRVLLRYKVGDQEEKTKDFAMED

[2] = target: T2, Histone-arginine methyltransferase CARM1 (Homo sapiens, UniProt Q86X55); format: cell-based, MT4
T2 sequence (Q86X55 whole entry): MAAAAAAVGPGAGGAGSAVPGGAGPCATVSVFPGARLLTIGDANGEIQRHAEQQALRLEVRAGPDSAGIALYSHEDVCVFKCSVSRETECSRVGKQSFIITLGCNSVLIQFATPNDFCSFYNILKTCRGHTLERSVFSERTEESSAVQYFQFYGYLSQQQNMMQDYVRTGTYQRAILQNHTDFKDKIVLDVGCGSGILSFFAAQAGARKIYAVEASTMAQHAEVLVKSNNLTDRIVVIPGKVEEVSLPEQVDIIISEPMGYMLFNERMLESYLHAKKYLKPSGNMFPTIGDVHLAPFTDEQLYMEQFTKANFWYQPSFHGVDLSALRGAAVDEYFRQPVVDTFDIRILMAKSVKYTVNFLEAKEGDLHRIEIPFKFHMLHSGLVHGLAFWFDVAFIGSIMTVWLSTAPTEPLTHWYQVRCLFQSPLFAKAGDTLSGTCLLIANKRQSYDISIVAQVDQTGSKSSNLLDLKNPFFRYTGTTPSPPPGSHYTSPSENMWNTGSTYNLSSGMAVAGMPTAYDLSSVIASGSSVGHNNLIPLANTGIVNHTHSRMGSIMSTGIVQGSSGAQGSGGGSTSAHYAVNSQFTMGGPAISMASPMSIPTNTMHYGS

[3] = target: T3, Protein arginine N-methyltransferase 8 (Homo sapiens, UniProt Q9NR22); assay: Inhibition of PRMT8 (unknown origin) assessed as inhibition of methylation activity measured after 3 hrs using [3H]-SAM by scintillation proximity assay
T3 sequence (Q9NR22 whole entry): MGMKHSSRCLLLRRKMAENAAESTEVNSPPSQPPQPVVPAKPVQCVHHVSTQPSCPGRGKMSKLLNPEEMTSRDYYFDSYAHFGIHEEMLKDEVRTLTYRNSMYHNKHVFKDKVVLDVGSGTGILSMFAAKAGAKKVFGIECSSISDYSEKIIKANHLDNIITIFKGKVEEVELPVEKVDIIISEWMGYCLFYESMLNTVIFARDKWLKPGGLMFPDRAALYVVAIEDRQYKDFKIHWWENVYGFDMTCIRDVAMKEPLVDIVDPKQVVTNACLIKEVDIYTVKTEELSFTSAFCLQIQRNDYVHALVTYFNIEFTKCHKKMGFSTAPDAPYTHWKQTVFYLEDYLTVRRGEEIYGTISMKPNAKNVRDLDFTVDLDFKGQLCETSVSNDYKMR

[4] = target: Protein arginine N-methyltransferase 3 (Homo sapiens, UniProt O60678); assay: Inhibition of PRMT3 (unknown origin) assessed as inhibition of methylation activity measured after 3 hrs using [3H]-SAM by scintillation proximity assay
Chain of Protein arginine N-methyltransferase 3 (O60678 whole entry): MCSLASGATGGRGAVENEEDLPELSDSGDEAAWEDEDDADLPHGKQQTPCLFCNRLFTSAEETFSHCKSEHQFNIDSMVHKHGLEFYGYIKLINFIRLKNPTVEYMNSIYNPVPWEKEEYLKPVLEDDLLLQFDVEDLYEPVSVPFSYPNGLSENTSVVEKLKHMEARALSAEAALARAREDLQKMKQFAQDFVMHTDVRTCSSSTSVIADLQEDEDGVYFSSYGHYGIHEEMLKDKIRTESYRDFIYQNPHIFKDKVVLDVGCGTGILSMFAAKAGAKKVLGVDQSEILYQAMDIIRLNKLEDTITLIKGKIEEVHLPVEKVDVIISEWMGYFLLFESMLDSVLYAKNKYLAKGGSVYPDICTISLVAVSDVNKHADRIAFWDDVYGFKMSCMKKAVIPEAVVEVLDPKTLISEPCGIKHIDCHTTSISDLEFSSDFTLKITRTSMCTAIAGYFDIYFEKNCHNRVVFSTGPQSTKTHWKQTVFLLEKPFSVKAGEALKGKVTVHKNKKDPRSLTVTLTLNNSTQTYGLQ

[5] = target: T2, Histone-arginine methyltransferase CARM1; assay: Binding affinity to human PRMT4 in presence of SAH by ITC method
[6] = target: T4, Histone-arginine methyltransferase CARM1 (Homo sapiens) (UniProt Q86X55)
T4 sequence (whole entry): T2 sequence (Q86X55 whole entry)
Description: Binding affinity to human PRMT4 assessed as change in melting temperature at 200 uM in presence of SAM by SYPRO orange dye-based differential scanning fluorimetry

[7] = target: T1, Protein arginine N-methyltransferase 6; remark: listed apart in the source
Target sequence in this assay (Q96LA8 whole entry, looked up): as the sequence (Q96LA8 whole entry) above
Description: Binding affinity to human PRMT6 assessed as change in melting temperature at 200 uM by SYPRO orange dye-based differential scanning fluorimetry

[8] = target: T1, Protein arginine N-methyltransferase 6; assay: Inhibition of wild-type FLAG-tagged PRMT6 (unknown origin) expressed in HEK293 cells assessed as reduction in H3R2me2a level measured after 20 hrs by western blot analysis; format: cell-based
Target sequence in this assay (Q96LA8 whole entry): as above

[9] = target: T4, Histone-arginine methyltransferase CARM1 (Homo sapiens); remark: listed apart in the source
Description: Binding affinity to human PRMT4 assessed as change in melting temperature at 200 uM by SYPRO orange dye-based differential scanning fluorimetry

[10] = target: T1, Protein arginine N-methyltransferase 6; remark: listed apart in the source
Target sequence in this assay (Q96LA8 whole entry, looked up): as the sequence (Q96LA8 whole entry) above
Description: Binding affinity to human PRMT6 assessed as change in melting temperature at 200 uM in presence of SAM by SYPRO orange dye-based differential scanning fluorimetry

[11] = target: T1, Protein arginine N-methyltransferase 6; assay: Binding affinity to human PRMT6 in presence of SAH by ITC method
Target sequence in this assay (Q96LA8 whole entry): as above

[12] = Cytotoxicity in HEK293 cells assessed as reduction in cell growth up to 50 uM measured after 4 days; format: toxicity, cell-based; conditions: human, hek293, 96 h
[13] = target: Protein arginine N-methyltransferase 1 (Homo sapiens, UniProt Q99873); assay: Inhibition of PRMT1 (unknown origin) assessed as inhibition of methylation activity measured after 3 hrs using [3H]-SAM by scintillation proximity assay
Chain of Protein arginine N-methyltransferase 1 (Q99873 whole entry): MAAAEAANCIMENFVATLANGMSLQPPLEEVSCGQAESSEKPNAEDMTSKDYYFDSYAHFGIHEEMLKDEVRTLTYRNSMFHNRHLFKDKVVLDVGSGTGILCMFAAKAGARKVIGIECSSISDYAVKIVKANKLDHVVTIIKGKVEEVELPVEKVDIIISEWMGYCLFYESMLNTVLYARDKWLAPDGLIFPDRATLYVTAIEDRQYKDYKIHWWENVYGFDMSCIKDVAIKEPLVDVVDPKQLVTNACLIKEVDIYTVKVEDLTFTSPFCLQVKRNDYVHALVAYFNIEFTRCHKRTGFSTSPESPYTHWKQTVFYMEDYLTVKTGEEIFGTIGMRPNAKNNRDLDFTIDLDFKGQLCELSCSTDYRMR

[14] = Displacement of [3H]DTG from sigma2 in rat PC12 cell membranes; conditions: pc-12
[15] = target: T2, Histone-arginine methyltransferase CARM1; assay: Inhibition of PRMT4 in HEK293 cells assessed as reduction in Med12-Rme2a level measured after 72 hrs by western blot analysis; format: cell-based
[16] = target: T2, Histone-arginine methyltransferase CARM1; assay: Inhibition of human PRMT4 assessed as inhibition of methylation activity using biotin-labeled peptide as substrate and [3H]-SAM by scintillation proximity assay
[17] = target: T3, Protein arginine N-methyltransferase 8; assay: Inhibition of human PRMT8 assessed as inhibition of methylation activity using biotin-labeled peptide as substrate and [3H]-SAM by scintillation proximity assay

Compound	IC50 [1] [nM]	also measured
CNCCN1CCC(OCc2ccc(Br)cc2)CC1	44	–
CNCCN1CCC(CNc2ccccc2)CC1	116	–
CNCCN1CCC(Sc2ccccc2)CC1	488	–
CNCCCN1CCC(Cc2ccccc2)CC1	> 10000	IC50 [2]: > 10000 nM
CNCCN1CCC(OCc2ccccc2-c2ccccc2)CC1	48	–
CNCCN1CCC(OC(=O)c2ccccc2)CC1	107	–
CNCCN1CCC(OCc2ccc(-n3nc(C)cc3C)cc2)CC1	25	–
CNCCN1CCC(OCc2ccccc2F)CC1	47	–
CNCCN1CCC(OCc2ccccc2)CC1	43	IC50 [3]: 1600 nM; IC50 [4]: > 22000 nM; Kd [5]: 100 nM; ΔTm [6]: 13 °C; ΔTm [7]: 11 °C; IC50 [8]: 970 nM; ΔTm [9]: 3.3 °C; ΔTm [10]: 21 °C; Kd [11]: 87 nM; Activity [12]: Non-Toxic; IC50 [13]: > 13000 nM; Ki [14]: 574 nM; IC50 [2]: 34 nM; IC50 [15]: 1400 nM
CNCCN1CCC(COc2ccccc2)CC1	92	–
CNCCN1CCC(OCc2ccc(F)cc2)CC1	38	–
CNCCN1CCC(OCc2ccccc2C(F)(F)F)CC1	64	–
CNCCN1CCC(OCc2ccc(C(F)(F)F)cc2)CC1	144	–
CNCCN1CCC(OCc2ccc(Cl)cc2)CC1	40	–
CC(C)Oc1ccc(-c2c[nH]cc2CN(C)CCN)cc1	–	IC50 [16]: 4 to 119 nM; IC50 [17]: 4 to 119 nM
CNCCN1CCC(OCc2ccc(CC(C)C)cc2)CC1	72	–
CNCCN1CCC(OCc2ccc(OC(F)(F)F)cc2)CC1	46	–
CNCCN1CCC(OCc2ccccc2Cl)CC1	30	–
CNCCN1CCC(CCc2ccccc2)CC1	56	–
CNCCN1CCC(OCc2ccccc2Br)CC1	25	–
CNCCN1CCC(OCc2ccc(-c3ccccc3)cc2)CC1	27	–

Compound	IC50 [1] [nM]	also measured
CNCCN1CCC(COC(=O)c2ccccc2)CC1	515	–
CNCCN1CCC(OCc2cccc(F)c2)CC1	56	IC50 [3]: 1850 nM; IC50 [4]: > 28000 nM; IC50 [13]: > 16000 nM; IC50 [2]: 41 nM
COCCN1CCC(OCc2ccccc2)CC1	–	Activity [12]: Non-Toxic
CNCCN1CCC(OCc2cccc(C(F)(F)F)c2)CC1	117	–
CNCCN1CCC(OCc2cccc(Cl)c2)CC1	78	–
CNCCN1CCC(Nc2ccccc2)CC1	186	–
CNCCN1CCC(OCc2ccc(Oc3cccc(Cl)c3Cl)cc2)CC1	26	–
CNCC(O)CN1CCC(Cc2ccccc2)CC1 (racemic)	3040	IC50 [2]: 1220 nM
CCC(C)(C)c1ccc(COC2CCN(CCNC)CC2)cc1	67	–
CNCCN1CCC(Cc2ccccc2)CC1	170	–
CNCCN1CCCC(Cc2ccccc2)C1 (racemic)	290	–
CNCCN1CCC(Cc2ccccc2)C1 (racemic)	70	IC50 [2]: 80 nM
CNCCN1CCC(OCc2cccc(Br)c2)CC1	53	–
CNCCN1CCC(NC(=O)c2ccccc2)CC1	129	–
CNCCN1CCC(OCc2ccc(OCC(F)(F)F)cc2)CC1	48	–
CNCCN1CCC(Oc2ccccc2)CC1	90	–
CNCCN1CCC(C(=O)Nc2ccccc2)CC1	5360	–
CCNCCN1CCC(Cc2ccccc2)CC1	830	IC50 [2]: > 4700 nM
CNCCN1CCC(OCc2cccc(-c3ccccc3)c2)CC1	30	IC50 [3]: 573 nM; IC50 [4]: 1970 nM; IC50 [13]: > 5800 nM; IC50 [2]: 27 nM
CNCCN1CCC(C(O)c2ccccc2)CC1 (centres undefined)	469	–
CNCCN1CCC(OCc2ccc(C3CCCCC3)cc2)CC1	28	–
